Source: patent publication US9737563B2, “Magnesium compositions and uses thereof for neurological disorders” (Neurocentria, Inc., priority 2007, dated 2017)
Read-outs that look alike come from different tables or passages of the source.

Experiments:
AD mice = experiment: Morris water maze test, comparison with anti-AD drugs; format: in vivo; details: AD mice aged 13 months
Protocol: Two known anti-AD drugs named […] memantine were administered separately to the mice. For these experiments, mice were tested for effects on memory and learning using the Morris water maze test, essentially as described in the previous example.

[1] = Magnesium absorption rate in rats (metabolic cages, urine and feces magnesium by ICP-AES); details: Example 5, gluconate in skim milk or 5 weight percent lactose water, chloride in water
Protocol: Fifty 3-month old, male Sprague Dawley (SD) rats were divided into five groups of ten rats. Rats of this age and older are considered adult. Each of the rats was placed in a separate metabolic cage equipped with urine- and feces-collecting wells. All of the rats were maintained in a temperature-controlled room (22° C. to 25° C.) with a dark period from 08:00 pm to 08:00 am daily. From day 1 through day 3, each rat was fed daily 15 g of magnesium-free food and de-ionized water. […] The medium was skim milk for Composition 1 and Group 1, milk prepared from powdered milk, by diluting the powdered milk with water to obtain a composition like that of skim milk, for Composition 2 and Group 2, 1% milk cream in water for Composition 3 and Group 3, water comprising 5 weight percent lactose for Composition 4 and Group 4, and water for the Control Composition and Control Group. […] From day 11 through day 12, each rat was fed daily 15 g of magnesium-free food and de-ionized water.
From day 4 through day 10, urine from each rat was collected daily. The collected urine from each rat was then pooled together and the total volume of the pooled urine from each rat was recorded. The pooled urine from each rat, in an amount of […], was analyzed for magnesium content using an inductively coupled plasma-atomic emission spectrometer (ICP-AES). From day 5 to day 11, feces from each rat were collected daily. The collected feces from each rat were pooled together and the pooled feces were weighed and homogenized. The pooled feces from each rat, in an amount of 0.5 g, were analyzed for magnesium content using an ICP-AES.
A formula was used to calculate a magnesium absorption rate for each rat. The formula used was Y=AX−B, wherein X was the average total daily magnesium intake, Y was the average net daily amount of magnesium absorbed, as calculated by X minus the average daily amount of magnesium excreted from feces, B was the average daily amount of magnesium excreted from feces when the magnesium intake was zero, and the slope A represented the magnesium absorption rate. Data points (X, Y) associated with each rat in each group often rats, with the exception of the best points and the worst points, were plotted. The value of A, the magnesium absorption rate, associated with each of Groups 1-4, and thus with each of the Compositions 1-4, was then obtained using linear regression. The value of A, the magnesium absorption rate, associated with the Control Group, and thus with the Control Composition, was also obtained using linear regression, and relabeled as A0. […]

[2] = test system: aging rats (12-14 months old); details: for novel object exploration preference: single training
Protocol: In this example, the effect of magnesium supplementation on recognition memory was tested. Three groups of rats were used in these experiments: 1) young rats (three months old); aging rats (12-14 months old), and; 3) magnesium-treated aging rats (12-14 months old, diet supplemented with 6 mg/kg MgCl2 from 8 months of age). We used experimentally naive, female, Sprague-Dawley young […], aging (12-14 month old) and […] rats (Charles River) at the beginning of the behavior experiments. They were housed two per cage with continuous access to food and water under a 12:12 light-dark cycle, with light onset at 8:00 a.m. […] All experiments involving animals were approved by the Massachusetts Institute of Technology's and Tsinghua University Committees on Animal Care.
The three groups of rats were tested for recognition memory using an object recognition test with a single exposure to the object during training. The task is based on the natural tendency of rodents to explore new objects and tests the animals' memory capacity for distinguishing novel versus familiar objects.
Briefly, the rats were first individually habituated to the personnel and then to open-field arena during 2 weeks. The rats were then allowed to explore two identical objects placed into the arena at fixed locations until they had accumulated 30 s of total inspection time (where this is defined as active exploration, sniffing or touching the object with the nose and/or forepaws) or for a maximum of 20 min. The rat was returned to the arena for the retention test and allowed to explore for another 30 sec. The retention intervals were 10 min and 24 hours. Objects were cleaned thoroughly between trials with 20% ethanol solution to ensure the absence of olfactory cues. The particular objects for a given trial were randomly determined, but each object was used for only one trial per rat. Memory of the familiar object is associated with increased exploration of the new object and an exploration index (% correct) is calculated as new object inspection time/30. […]

aging rats = test system: aging rats
Protocol: Three groups of animals (young, aging, and magnesium-treated aging rats) were used. […] Spatial working memory was assessed using a T-maze non-matching-to-place task. […] Spatial working memory was first assessed on an elevated T-maze. The maze was located 1 m above the floor in a well lit laboratory that contained various prominent distal extra-maze cues. The rats were handled and habituated to the maze for 10 days, and to Froot Loop® cereal over several days before the test. Each trial consisted of a sample run and a choice run, with delay intervals of 15 s during the training and the pattern completion tasks. On the sample run, the rats were forced either left or right by the presence of the block, according to a pseudorandom sequence (with equal numbers of left and right turns per session, and with no more than two consecutive turns in the same direction). A cereal reward was available in the food well at the end of the arm. The block was then removed, and the rat was allowed a free choice of either arm. The animal was rewarded for choosing the previously unvisited arm. Rats were run one trial at a time with an inter-trial interval of 10 min. Each daily session consisted of 6 trials.
The rats were tested for 10 consecutive days on a rewarded forced-choice alternation task. The percentage of correct choices (alternations) was recorded for each daily session. […] Then, spatial working memory was tested by a gradual increase of the delay between the sample and the choice trials (FIG. 10, right panel).

diabetic patients = details: nearly 1 g of magnesium daily for 1 month; cited from earlier work
[3] = test system: young (9-month old) and aged (25-month old) rats; details: food containing 2% for 8 days, cited from earlier work
[4] = relatively high magnesium dosage
[5] = relatively low magnesium dosage

## COc1cc2c(cc1OC)C(=O)C(CC1CCN(Cc3ccccc3)CC1)C2 (stereo not drawn) [aricept]
AD mice
  reducing the effects of AD on learning capacity: both being better at reducing the effects of AD on learning capacity than aricept

## [Cl-].[Cl-].[Mg+2] [magnesium chloride]
[1]; [4]
  magnesium absorption rate: less desirable
[1]; [5]
  magnesium absorption rate: suitable, but lower
[2]; 10 minute retention interval, aging rats, 6 mg/kg from 8 months of age
  novel object exploration preference: preferentially explored the novel object to the same extent as young rats
[2]; 24 hours retention interval
  novel object exploration preference: lose there ability to distinguish novel versus familiar objects
[2]; two training sessions separated by 10 minutes, 24-hour retention interval
  novel object preference: retained a high level of preference
Aging rats; 2 and 5 min delays, p<0.05
  spatial working memory with increased delay: significantly enhanced the performance of the aging rats at 2 and 5 min delays
Aging rats; 15 sec delay, versus untreated aging rats, p<0.05
  percentage of correct choices during training: performed significantly better from their first trials
Aging rats; after 8 days of training, all three groups
  asymptotic choice accuracy level: ~94%

## magnesium gluconate
[1]; [4]
  magnesium absorption rate: suitably close to those associated with the lower dosage compositions
[1]; [5]
  magnesium absorption rate: suitable magnesium absorption rates

## CC12CC3CC(C)(C1)CC(N)(C3)C2 [memantine]
AD mice
  reducing the effects of AD on learning capacity: better at reducing the effects of AD on learning capacity than aricept

## [O]=[Mg] [magnesium oxide]
Diabetic patients
  metabolic control: only minor improvement in metabolic control
[3]
  side-effect: diarrhea and weight loss
[3]; gain transient
  cognitive function: some sign of improvement of cognitive function
